Columns and labels:
Assay type in all cases: functional
Ostrinia nubilalis [1] = assay: Antifeedant activity against Ostrinia nubilalis (European corn borer) larvae assessed as amount of weight gain by the insect at 0.20% of diet dry weight after 5 days relative to control
Ostrinia nubilalis [2] = assay: Effect on growth of female Ostrinia nubilalis (European corn borer) larvae assessed as adult emergence at 0.10% of diet dry weight after 6 days relative to control
Ostrinia nubilalis [3] = assay: Antifeedant activity against Ostrinia nubilalis (European corn borer) larvae assessed as growth rate at 0.60% of diet dry weight after 5 days relative to control
Ostrinia nubilalis [4] = assay: Antifeedant activity against Ostrinia nubilalis (European corn borer) larvae assessed as feeding rate at 0.80% of diet dry weight after 5 days relative to control
Ostrinia nubilalis [5] = assay: Effect on growth of male Ostrinia nubilalis (European corn borer) larvae assessed as adult emergence at 0.001% of diet dry weight after 6 days relative to control
Ostrinia nubilalis [6] = assay: Antifeedant activity against Ostrinia nubilalis (European corn borer) larvae assessed as feeding rate at 0.60% of diet dry weight after 5 days relative to control
Ostrinia nubilalis [7] = assay: Antifeedant activity against Ostrinia nubilalis (European corn borer) larvae assessed as amount excreted at 0.10% of diet dry weight after 5 days relative to control
Ostrinia nubilalis [8] = assay: Antifeedant activity against Ostrinia nubilalis (European corn borer) larvae assessed as excretion rate at 0.10% of diet dry weight after 5 days relative to control
Ostrinia nubilalis [9] = assay: Effect on growth of male Ostrinia nubilalis (European corn borer) larvae assessed as adult emergence at 1% of diet dry weight after 6 days relative to control
Ostrinia nubilalis [10] = assay: Effect on growth of male Ostrinia nubilalis (European corn borer) larvae assessed as pupal weight at 0.01% of diet dry weight after 6 days relative to control
Ostrinia nubilalis [11] = assay: Effect on growth of female Ostrinia nubilalis (European corn borer) larvae assessed as pupal duration at 0.01% of diet dry weight after 6 days relative to control
Ostrinia nubilalis [12] = assay: Antifeedant activity against Ostrinia nubilalis (European corn borer) larvae assessed as amount excreted at 0.20% of diet dry weight after 5 days relative to control
Ostrinia nubilalis [13] = assay: Antifeedant activity against Ostrinia nubilalis (European corn borer) larvae assessed as amount of food consumed at 0.60% of diet dry weight after 5 days relative to control
Ostrinia nubilalis [14] = assay: Effect on growth of male Ostrinia nubilalis (European corn borer) larvae assessed as pupal duration at 0.001% of diet dry weight after 6 days relative to control
Ostrinia nubilalis [15] = assay: Insecticidal activity against Ostrinia nubilalis (European corn borer) larvae assessed as mortality at 0.10 to 0.80% of diet dry weight after 5 days relative to control
Ostrinia nubilalis [16] = assay: Antifeedant activity against Ostrinia nubilalis (European corn borer) larvae assessed as amount excreted at 0.80% of diet dry weight after 5 days relative to control
Ostrinia nubilalis [17] = assay: Antifeedant activity against Ostrinia nubilalis (European corn borer) larvae assessed as growth rate at 0.80% of diet dry weight after 5 days relative to control
Ostrinia nubilalis [18] = assay: Antifeedant activity against Ostrinia nubilalis (European corn borer) larvae assessed as amount of food consumed at 0.20% of diet dry weight after 5 days relative to control
Ostrinia nubilalis [19] = assay: Effect on growth of male Ostrinia nubilalis (European corn borer) larvae assessed as larval duration at 0.01% of diet dry weight after 6 days relative to control
Ostrinia nubilalis [20] = assay: Effect on growth of female Ostrinia nubilalis (European corn borer) larvae assessed as pupal weight at 0.10% of diet dry weight after 6 days relative to control
Ostrinia nubilalis [21] = assay: Effect on growth of female Ostrinia nubilalis (European corn borer) larvae assessed as adult emergence at 1% of diet dry weight after 6 days relative to control
Ostrinia nubilalis [22] = assay: Effect on growth of male Ostrinia nubilalis (European corn borer) larvae assessed as larval duration at 0.10% of diet dry weight after 6 days relative to control
Ostrinia nubilalis [23] = assay: Effect on growth of female Ostrinia nubilalis (European corn borer) larvae assessed as pupal weight at 0.001% of diet dry weight after 6 days relative to control
Ostrinia nubilalis [24] = assay: Antifeedant activity against Ostrinia nubilalis (European corn borer) larvae assessed as amount of food consumed at 0.10% of diet dry weight after 5 days relative to control
Ostrinia nubilalis [25] = assay: Effect on growth of female Ostrinia nubilalis (European corn borer) larvae assessed as larval duration at 0.01% of diet dry weight after 6 days relative to control
Ostrinia nubilalis [26] = assay: Antifeedant activity against Ostrinia nubilalis (European corn borer) larvae assessed as amount of weight gain by the insect at 0.40% of diet dry weight after 5 days relative to control
Ostrinia nubilalis [27] = assay: Antifeedant activity against Ostrinia nubilalis (European corn borer) larvae assessed as amount of weight gain by the insect at 0.80% of diet dry weight after 5 days relative to control
Ostrinia nubilalis [28] = assay: Antifeedant activity against Ostrinia nubilalis (European corn borer) larvae assessed as amount of food consumed at 0.40% of diet dry weight after 5 days relative to control
Ostrinia nubilalis [29] = assay: Effect on growth of male Ostrinia nubilalis (European corn borer) larvae assessed as pupal duration at 0.10% of diet dry weight after 6 days relative to control
Ostrinia nubilalis [30] = assay: Antifeedant activity against Ostrinia nubilalis (European corn borer) larvae assessed as growth rate at 0.10% of diet dry weight after 5 days relative to control
Ostrinia nubilalis [31] = assay: Effect on growth of female Ostrinia nubilalis (European corn borer) larvae assessed as larval duration at 1% of diet dry weight after 6 days relative to control
Ostrinia nubilalis [32] = assay: Effect on growth of female Ostrinia nubilalis (European corn borer) larvae assessed as adult emergence at 0.01% of diet dry weight after 6 days relative to control
Ostrinia nubilalis [33] = assay: Effect on growth of male Ostrinia nubilalis (European corn borer) larvae assessed as pupal weight at 1% of diet dry weight after 6 days relative to control
Ostrinia nubilalis [34] = assay: Effect on growth of male Ostrinia nubilalis (European corn borer) larvae assessed as pupal weight at 0.10% of diet dry weight after 6 days relative to control
Ostrinia nubilalis [35] = assay: Antifeedant activity against Ostrinia nubilalis (European corn borer) larvae assessed as excretion rate at 0.60% of diet dry weight after 5 days relative to control
Ostrinia nubilalis [36] = assay: Antifeedant activity against Ostrinia nubilalis (European corn borer) larvae assessed as excretion rate at 0.80% of diet dry weight after 5 days relative to control
Ostrinia nubilalis [37] = assay: Effect on growth of male Ostrinia nubilalis (European corn borer) larvae assessed as larval duration at 0.001% of diet dry weight after 6 days relative to control
Ostrinia nubilalis [38] = assay: Antifeedant activity against Ostrinia nubilalis (European corn borer) larvae assessed as amount of weight gain by the insect at 0.60% of diet dry weight after 5 days relative to control
Ostrinia nubilalis [39] = assay: Antifeedant activity against Ostrinia nubilalis (European corn borer) larvae assessed as growth rate at 0.40% of diet dry weight after 5 days relative to control
Ostrinia nubilalis [40] = assay: Effect on growth of male Ostrinia nubilalis (European corn borer) larvae assessed as adult emergence at 0.01% of diet dry weight after 6 days relative to control
Ostrinia nubilalis [41] = assay: Effect on growth of female Ostrinia nubilalis (European corn borer) larvae assessed as pupal weight at 0.01% of diet dry weight after 6 days relative to control
Ostrinia nubilalis [42] = assay: Antifeedant activity against Ostrinia nubilalis (European corn borer) larvae assessed as amount of weight gain by the insect at 0.10% of diet dry weight after 5 days relative to control
Ostrinia nubilalis [43] = assay: Antifeedant activity against Ostrinia nubilalis (European corn borer) larvae assessed as feeding rate at 0.40% of diet dry weight after 5 days relative to control
Ostrinia nubilalis [44] = assay: Antifeedant activity against Ostrinia nubilalis (European corn borer) larvae assessed as feeding rate at 0.10% of diet dry weight after 5 days relative to control
Ostrinia nubilalis [45] = assay: Antifeedant activity against Ostrinia nubilalis (European corn borer) larvae assessed as amount of food consumed at 0.80% of diet dry weight after 5 days relative to control
Ostrinia nubilalis [46] = assay: Antifeedant activity against Ostrinia nubilalis (European corn borer) larvae assessed as amount excreted at 0.40% of diet dry weight after 5 days relative to control
Ostrinia nubilalis [47] = assay: Antifeedant activity against Ostrinia nubilalis (European corn borer) larvae assessed as amount excreted at 0.60% of diet dry weight after 5 days relative to control
Ostrinia nubilalis [48] = assay: Effect on growth of female Ostrinia nubilalis (European corn borer) larvae assessed as larval duration at 0.001% of diet dry weight after 6 days relative to control
Ostrinia nubilalis [49] = assay: Effect on growth of male Ostrinia nubilalis (European corn borer) larvae assessed as larval duration at 1% of diet dry weight after 6 days relative to control
Ostrinia nubilalis [50] = assay: Effect on growth of female Ostrinia nubilalis (European corn borer) larvae assessed as pupal weight at 1% of diet dry weight after 6 days relative to control
Ostrinia nubilalis [51] = assay: Effect on growth of male Ostrinia nubilalis (European corn borer) larvae assessed as pupal duration at 1% of diet dry weight after 6 days relative to control
Ostrinia nubilalis [52] = assay: Effect on growth of male Ostrinia nubilalis (European corn borer) larvae assessed as pupal duration at 0.01% of diet dry weight after 6 days relative to control
Ostrinia nubilalis [53] = assay: Effect on growth of female Ostrinia nubilalis (European corn borer) larvae assessed as larval duration at 0.10% of diet dry weight after 6 days relative to control
Ostrinia nubilalis [54] = assay: Antifeedant activity against Ostrinia nubilalis (European corn borer) larvae assessed as excretion rate at 0.20% of diet dry weight after 5 days relative to control
Ostrinia nubilalis [55] = assay: Antifeedant activity against Ostrinia nubilalis (European corn borer) larvae assessed as feeding rate at 0.20% of diet dry weight after 5 days relative to control
Ostrinia nubilalis [56] = assay: Effect on growth of female Ostrinia nubilalis (European corn borer) larvae assessed as adult emergence at 0.001% of diet dry weight after 6 days relative to control
Ostrinia nubilalis [57] = assay: Effect on growth of male Ostrinia nubilalis (European corn borer) larvae assessed as adult emergence at 0.10% of diet dry weight after 6 days relative to control
Ostrinia nubilalis [58] = assay: Antifeedant activity against Ostrinia nubilalis (European corn borer) larvae assessed as growth rate at 0.20% of diet dry weight after 5 days relative to control
Ostrinia nubilalis [59] = assay: Effect on growth of male Ostrinia nubilalis (European corn borer) larvae assessed as pupal weight at 0.001% of diet dry weight after 6 days relative to control
Ostrinia nubilalis [60] = assay: Effect on growth of female Ostrinia nubilalis (European corn borer) larvae assessed as pupal duration at 0.001% of diet dry weight after 6 days relative to control
Ostrinia nubilalis [61] = assay: Effect on growth of female Ostrinia nubilalis (European corn borer) larvae assessed as pupal duration at 0.10% of diet dry weight after 6 days relative to control
Ostrinia nubilalis [62] = assay: Effect on growth of female Ostrinia nubilalis (European corn borer) larvae assessed as pupal duration at 1% of diet dry weight after 6 days relative to control
Ostrinia nubilalis [63] = assay: Antifeedant activity against Ostrinia nubilalis (European corn borer) larvae assessed as excretion rate at 0.40% of diet dry weight after 5 days relative to control

Compound `CC(C)=CCc1c2c(c3occ(-c4ccc(O)cc4)c(=O)c3c1O)C=CC(C)(C)O2` [OSAJIN] has an Activity (Ostrinia nubilalis [1]) of -3%, an Activity (Ostrinia nubilalis [2]) of 50% and an Activity (Ostrinia nubilalis [3]) of 1.7%. For the same compound, the Activity (Ostrinia nubilalis [4]) was 27.5%, the Activity (Ostrinia nubilalis [5]) was 71% and the Activity (Ostrinia nubilalis [6]) was 36%. The Activity (Ostrinia nubilalis [7]) was -1.4%, the Activity (Ostrinia nubilalis [8]) was -1% and the Activity (Ostrinia nubilalis [9]) was 43%. It also gave an Activity (Ostrinia nubilalis [10]) of 75 mg, a Time (Ostrinia nubilalis [11]) of 6.3 days and an Activity (Ostrinia nubilalis [12]) of 2.6%. The Activity (Ostrinia nubilalis [13]) was 36%, the Time (Ostrinia nubilalis [14]) was 7.2 days and the mortality (Ostrinia nubilalis [15]) was “<=7%”. For the same compound, the Activity (Ostrinia nubilalis [16]) was 1.9%, the Activity (Ostrinia nubilalis [17]) was 3% and the Activity (Ostrinia nubilalis [18]) was -12%. It also gave a Time (Ostrinia nubilalis [19]) of 11.4 days, an Activity (Ostrinia nubilalis [20]) of 102 mg and an Activity (Ostrinia nubilalis [21]) of 85%. For the same compound, the Time (Ostrinia nubilalis [22]) was 11.4 days, the Activity (Ostrinia nubilalis [23]) was 103 mg and the Activity (Ostrinia nubilalis [24]) was -8%. The Time (Ostrinia nubilalis [25]) was 12.6 days, the Activity (Ostrinia nubilalis [26]) was 17% and the Activity (Ostrinia nubilalis [27]) was 10.5%. The Activity (Ostrinia nubilalis [28]) was 30.5%, the Time (Ostrinia nubilalis [29]) was 7.6 days and the Activity (Ostrinia nubilalis [30]) was -1%. The Time (Ostrinia nubilalis [31]) was 12.4 days, the Activity (Ostrinia nubilalis [32]) was 44% and the Activity (Ostrinia nubilalis [33]) was 71 mg. The Activity (Ostrinia nubilalis [34]) was 75 mg, the Activity (Ostrinia nubilalis [35]) was 1.9% and the Activity (Ostrinia nubilalis [36]) was 4%. The Time (Ostrinia nubilalis [37]) was 11.4 days, the Activity (Ostrinia nubilalis [38]) was 7% and the Activity (Ostrinia nubilalis [39]) was 4.7%. The Activity (Ostrinia nubilalis [40]) was 50%, the Activity (Ostrinia nubilalis [41]) was 104 mg and the Activity (Ostrinia nubilalis [42]) was -2%. For the same compound, the Activity (Ostrinia nubilalis [43]) was 23%, the Activity (Ostrinia nubilalis [44]) was -7% and the Activity (Ostrinia nubilalis [45]) was 27.7%. For the same compound, the Activity (Ostrinia nubilalis [46]) was 17.6%, the Activity (Ostrinia nubilalis [47]) was 10.8% and the Time (Ostrinia nubilalis [48]) was 11.7 days. The Time (Ostrinia nubilalis [49]) was 11.3 days, the Activity (Ostrinia nubilalis [50]) was 109 mg and the Time (Ostrinia nubilalis [51]) was 7.3 days. For the same compound, the Time (Ostrinia nubilalis [52]) was 6.8 days, the Time (Ostrinia nubilalis [53]) was 11.8 days and the Activity (Ostrinia nubilalis [54]) was 6%. It also gave an Activity (Ostrinia nubilalis [55]) of -8%, an Activity (Ostrinia nubilalis [56]) of 54% and an Activity (Ostrinia nubilalis [57]) of 71%. It also gave an Activity (Ostrinia nubilalis [58]) of -1%, an Activity (Ostrinia nubilalis [59]) of 76 mg and a Time (Ostrinia nubilalis [60]) of 6.5 days. It also gave a Time (Ostrinia nubilalis [61]) of 7.1 days, a Time (Ostrinia nubilalis [62]) of 6.4 days and an Activity (Ostrinia nubilalis [63]) of 6.3%.
